In PMC9097638, “Mechanism underlying the carotenoid accumulation in shaded tea leaves” (Food Chemistry: X, 2022):

Columns and labels:
CsLCYE = biological target: T1, CsLCYE (Camellia sinensis, UniProt A0A7J7G232); assay: E. coli pAC-LYC complementation, HPLC of pigments; format: cell-based; settings: lycopene made in the cells; product delta-carotene; 30 °C, 48 h, darkness
T1 construct: gene HYC85_025912; full-length cDNA subcloned into y2 plasmid; expressed in E. coli DH5alpha carrying pAC-LYC; not purified
T1 sequence (A0A7J7G232 1-531 limits assumed): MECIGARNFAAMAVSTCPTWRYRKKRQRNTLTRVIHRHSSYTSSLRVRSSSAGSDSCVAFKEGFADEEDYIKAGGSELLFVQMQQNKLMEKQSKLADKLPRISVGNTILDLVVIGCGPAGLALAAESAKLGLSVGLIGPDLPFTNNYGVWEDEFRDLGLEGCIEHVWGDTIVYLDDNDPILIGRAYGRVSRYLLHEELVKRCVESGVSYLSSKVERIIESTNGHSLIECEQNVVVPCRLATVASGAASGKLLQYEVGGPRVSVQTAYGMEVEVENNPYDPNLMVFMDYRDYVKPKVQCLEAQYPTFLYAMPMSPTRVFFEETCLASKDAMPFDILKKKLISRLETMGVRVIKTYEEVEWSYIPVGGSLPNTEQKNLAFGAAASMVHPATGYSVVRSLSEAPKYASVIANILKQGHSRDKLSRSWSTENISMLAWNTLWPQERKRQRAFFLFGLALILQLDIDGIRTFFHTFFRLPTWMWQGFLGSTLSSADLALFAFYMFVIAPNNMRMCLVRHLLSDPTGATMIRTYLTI

CsLCYB = biological target: T2, CsLCYB (Camellia sinensis, UniProt A0A0B4SX47); assay: E. coli pAC-LYC complementation, HPLC of pigments; format: cell-based; settings: lycopene made in the cells; product beta-carotene; 30 °C, 48 h, darkness
T2 construct: gene lcyb; full-length cDNA subcloned into y2 plasmid; expressed in E. coli DH5alpha carrying pAC-LYC; not purified
T2 sequence (A0A0B4SX47 1-504): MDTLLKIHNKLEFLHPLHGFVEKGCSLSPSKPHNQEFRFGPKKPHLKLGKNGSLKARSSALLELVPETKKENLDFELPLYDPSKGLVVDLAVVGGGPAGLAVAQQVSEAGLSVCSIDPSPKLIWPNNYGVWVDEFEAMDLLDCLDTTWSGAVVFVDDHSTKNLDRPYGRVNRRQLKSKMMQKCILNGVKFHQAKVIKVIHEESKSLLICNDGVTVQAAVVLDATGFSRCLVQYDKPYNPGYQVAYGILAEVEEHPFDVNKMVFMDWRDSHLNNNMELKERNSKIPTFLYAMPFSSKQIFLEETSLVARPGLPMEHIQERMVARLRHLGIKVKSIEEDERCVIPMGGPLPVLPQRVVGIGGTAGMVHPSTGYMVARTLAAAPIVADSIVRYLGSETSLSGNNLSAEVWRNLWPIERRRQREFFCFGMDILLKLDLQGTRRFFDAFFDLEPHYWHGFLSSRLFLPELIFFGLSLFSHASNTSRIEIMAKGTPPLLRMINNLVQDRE

## CC(C)=CCC/C(C)=C/C=C/C(C)=C/C=C/C(C)=C/C=C/C=C(C)/C=C/C=C(C)/C=C/C=C(\C)CCC=C(C)C [lycopene]
CsLCYE
  E. coli pAC-LYC complementation, HPLC of pigments: monocyclic δ-carotene and lycopene were detected, implying that CsLCYE is a functional lycopene ε-cyclase
CsLCYB
  E. coli pAC-LYC complementation, HPLC of pigments: CsLCYB was able to convert the lycopene produced by the cells to β-carotene
